This note sets out measurements from patent publication US8178694B2, “Heterocyclylaminoalkyl substituted benzimidazoles” (Tibotec Pharmaceuticals Ltd., priority 2005, dated 2012).

In general, EC50 refers to the midpoint of the concentration-response curve. Lower therefore signals greater potency. For orientation: melting point means the temperature, or range, at which the solid turns liquid.

Series [1] has as its system Respiratory Syncytial Virus. In words: In vitro screening for activity against Respiratory Syncytial Virus (tetrazolium-based colorimetric assay, HeLa cells). Format: cell-based. Conditions: human respiratory syncytial virus, 168 h; protection against cytopathology caused by RSV in HeLa cells, MTT readout seven days after infection. From the text:
The percent protection against cytopathology caused by viruses (antiviral activity or EC50) achieved by tested compounds and their cytotoxicity (CC50) are both calculated from dose-response curves. The selectivity of the antiviral effect is represented by the selectivity index (SI), calculated by dividing the CC50 (cytotoxic dose for 50% of the cells) by the EC50 (antiviral activity for 50% of the cells).
Automated tetrazolium-based colorimetric assays were used for determination of EC50 and CC50 of test compounds. Flat-bottom, 96-well plastic microtiter trays were filled with 180 μl of Eagle's Basal Medium, supplemented with 5% FCS (0% for FLU) and 20 mM Hepes buffer. Subsequently, stock solutions (7.8× final test concentration) of compounds were added in 45 μl volumes to a series of triplicate wells so as to allow simultaneous evaluation of their effects on virus- and mock-infected cells. Five five-fold dilutions were made directly in the microtiter trays using a robot system. Untreated virus controls, and HeLa cell controls were included in each test. Approximately 100 TCID50 of Respiratory Syncytial Virus was added to two of the three rows in a volume of 50 μl. The same volume of medium was added to the third row to measure the cytotoxicity of the compounds at the same concentrations as those used to measure the antiviral activity. After two hours of incubation, a suspension (4×10^5 cells/ml) of HeLa cells was added to all wells in a volume of 50 μl. The cultures were incubated at 37° C. in a 5% CO2 atmosphere. Seven days after infection the cytotoxicity and the antiviral activity was examined spectrophotometrically. To each well of the microtiter tray, 25 μl of a solution of MTT (3-(4,5-dimethylthiazol-2-yl)-2,5-diphenyltetrazolium bromide) was added. The trays were further incubated at 37° C. for 2 hours, after which the medium was removed from each cup. Solubilization of the formazan crystals was achieved by adding 100 μl 2-propanol. Complete dissolution of the formazan crystals were obtained after the trays have been placed on a plate shaker for 10 min. Finally, the absorbances were read in an eight-channel computer-controlled photometer (Multiskan MCC, Flow Laboratories) at two wavelengths (540 and 690 nm). The absorbance measured at 690 nm was automatically subtracted from the absorbance at 540 nm, so as to eliminate the effects of non-specific absorption.

The structures appear in SMILES notation.

The compound `OCCc1ccncc1NCc1ccc2nc(NCCCN3CCOCC3)n(Cc3ncccc3O)c2c1` [h-3] yielded a melting point of 142 °C. The compound also showed an EC50 in series [1] of 447 nM.
Regarding `Cc1ccc(O)c(Cn2c(NCCCN3CCOCC3)nc3ccc(CNc4cccnc4CCO)cc32)n1` [c-3], the midpoint of the response in series [1], the EC50, lay at 31.6 nM.
On the same count and under the same terms, the figure for `OCCc1ncccc1NCc1ccc2nc(NCCCN3CCOCC3)n(Cc3ncccc3O)c2c1` [e-1] is 200 nM.
As to `Cc1ccc(O)c(Cn2c(NCCCN3CCOCC3)nc3ccc(CNc4cnccc4CCO)cc32)n1` [g-3], the melting point turned out to be 207 °C. This compound showed an EC50 in series [1] of 50.1 nM.
